In paper PMC6104039 (Nature Communications, 2018):
Where “and” joins values, the source holds several entries; their conditions need not be identical. Identical values can stand only once.

Tested on: HEK293 cells
Assay: Endogenous ceramide, HexCer and SM levels in cells treated 24 h, targeted LC-MS/MS
Type: cell-based
Set-up: Cer 18:1/24:0 content in HEK293 cells / Cer 18:1/24:1 content in HEK293 cells / HexCer 18:1/16:0 content in HEK293 cells / HexCer 18:1/18:0 content in HEK293 cells / HexCer 18:1/20:0 content in HEK293 cells / HexCer 18:1/22:0 content in HEK293 cells / Cer 18:1/16:0 content in HEK293 cells / Cer 18:1/18:0 content in HEK293 cells / Cer 18:1/20:0 content in HEK293 cells / Cer 18:1/22:0 content in HEK293 cells: unit not given here
Settings: replicates, raw data Suppl Fig 1
Method: Lipids were then extracted using MTBE/methanol/water as described above.
HEK293 cell culture experiment: Levels of each lipid in P053-treated HEK293 cells were normalised to the mean of the vehicle control group, and each concentration was compared to the control using ANOVA with Dunnett’s post-test. P values were adjusted for multiple comparisons in GraphPad PRISM.
Supplementary Figure 1. Ceramide, SM, and HexCer levels in HEK293 cells treated with
P053. Absolute lipid levels were determined by targeted LC-MS/MS, relative to external
standard curves. Results are mean ± SEM (n = 4) from one of two identical experiments.
Statistically significant results, based on two independent experiments, are as indicated in
Figure 2b-d. Raw data for these figures is provided in Supplementary Data File 1.

Structure (SMILES): C[C@@](N)(CO)CCc1ccc(OCc2ccc(Cl)c(Cl)c2)cc1 [P053, (S)-2-amino-4-(4-(3,4-dichlorobenzyloxy)phenyl)-2-methylbutan-1-ol]
- Cer 18:1/24:0 content in HEK293 cells (P053 10 nM): 78.2507 and 97.4893 and 100.975 and 120.086
- Cer 18:1/24:1 content in HEK293 cells (P053 10 nM): 41.2869 and 36.9476 and 41.283 and 38.2211
- HexCer 18:1/16:0 content in HEK293 cells (P053 10 nM): 30.7043 and 33.6425 and 33.4465 and 30.9255
- HexCer 18:1/18:0 content in HEK293 cells (P053 10 nM): 4.5494 and 4.09 and 4.473 and 4.32
- HexCer 18:1/20:0 content in HEK293 cells (P053 10 nM): 0.3088 and 0.3692 and 0.4154 and 0.4356
- HexCer 18:1/22:0 content in HEK293 cells (P053 10 nM): 36.8189 and 34.9551 and 38.6561 and 38.9837
- HexCer 18:1/24:0 content in HEK293 cells (P053 10 nM): 199.303 and 216.657 and 249.013 and 199.834
- HexCer 18:1/24:1 content in HEK293 cells (P053 10 nM): 70.2405 and 72.3688 and 73.5755 and 68.734
- SM 32:1 content in HEK293 cells (P053 10 nM): 35.2485 and 30.6751 and 30.1932 and 30.0675
- SM 34:1 content in HEK293 cells (P053 10 nM): 296.401 and 243.663 and 224.502 and 225.737
- SM 34:2 content in HEK293 cells (P053 10 nM): 47.2234 and 40.324 and 36.1571 and 38.6716
- SM 36:1 content in HEK293 cells (P053 10 nM): 29.6301 and 20.7933 and 22.4748 and 21.0053
- SM 36:2 content in HEK293 cells (P053 10 nM): 11.2341 and 9.942 and 8.241 and 8.207
- SM 38:1 content in HEK293 cells (P053 10 nM): 6.182 and 8.401 and 6.6333 and 8.787
- SM 40:1 content in HEK293 cells (P053 10 nM): 40.0944 and 41.0366 and 34.4775 and 35.2843
- SM 40:2 content in HEK293 cells (P053 10 nM): 10.3276 and 10.9643 and 10.3385 and 8.643
- SM 42:1 content in HEK293 cells (P053 10 nM): 68.7535 and 68.4711 and 69.6713 and 77.5442
- SM 42:2 content in HEK293 cells (P053 10 nM): 119.092 and 115.121 and 104.672 and 105.467
- Cer 18:1/16:0 content in HEK293 cells (P053 30 nM): 19.0547 and 20.8444 and 18.7423 and 20.5749
- Cer 18:1/18:0 content in HEK293 cells (P053 30 nM): 5.081 and 5.075 and 4.316 and 4.99
- Cer 18:1/20:0 content in HEK293 cells (P053 30 nM): 0.7183 and 0.7479 and 0.6521 and 0.6855
- Cer 18:1/22:0 content in HEK293 cells (P053 30 nM): 57.3121 and 66.2959 and 65.6669 and 64.5364
- Cer 18:1/24:0 content in HEK293 cells (P053 30 nM): 85.8777 and 134.225 and 118.415 and 97.9167
- Cer 18:1/24:1 content in HEK293 cells (P053 30 nM): 37.3744 and 44.4522 and 42.1609 and 41.0899
- HexCer 18:1/16:0 content in HEK293 cells (P053 30 nM): 29.7152 and 31.7982 and 33.8438 and 30.9723
- HexCer 18:1/18:0 content in HEK293 cells (P053 30 nM): 3.0394 and 3.951 and 4.099 and 3.127
- HexCer 18:1/20:0 content in HEK293 cells (P053 30 nM): 0.3329 and 0.4128 and 0.4628 and 0.5232
- HexCer 18:1/22:0 content in HEK293 cells (P053 30 nM): 32.4873 and 39.9972 and 37.7095 and 34.9843
- HexCer 18:1/24:0 content in HEK293 cells (P053 30 nM): 190.472 and 249.822 and 223.238 and 200.878
- HexCer 18:1/24:1 content in HEK293 cells (P053 30 nM): 66.6616 and 76.2502 and 69.0398 and 65.5993
- SM 32:1 content in HEK293 cells (P053 30 nM): 30.2036 and 32.0092 and 28.7617 and 34.5111
- SM 34:1 content in HEK293 cells (P053 30 nM): 248.003 and 262.537 and 249.572 and 281.872
- SM 34:2 content in HEK293 cells (P053 30 nM): 41.231 and 41.1196 and 40.1333 and 43.2759
- SM 36:1 content in HEK293 cells (P053 30 nM): 22.0304 and 22.5253 and 18.9401 and 24.6728
- SM 36:2 content in HEK293 cells (P053 30 nM): 9.089 and 8.502 and 8.127 and 10.0466
- SM 38:1 content in HEK293 cells (P053 30 nM): 14.9847 and 8.56 and 5.18 and 11.7454
- SM 40:1 content in HEK293 cells (P053 30 nM): 39.8982 and 44.3327 and 34.2754 and 42.2123
- SM 40:2 content in HEK293 cells (P053 30 nM): 9.856 and 9.764 and 9.362 and 10.5652
- SM 42:1 content in HEK293 cells (P053 30 nM): 69.7563 and 80.9547 and 78.46 and 71.8434
- SM 42:2 content in HEK293 cells (P053 30 nM): 104.731 and 121.981 and 114.303 and 118.688
- Cer 18:1/16:0 content in HEK293 cells (P053 100 nM): 22.9494 and 19.2357 and 22.5073 and 19.0496
- Cer 18:1/18:0 content in HEK293 cells (P053 100 nM): 2.972 and 3.68 and 3.21 and 2.092
- Cer 18:1/20:0 content in HEK293 cells (P053 100 nM): 0.613 and 0.738 and 0.687 and 0.5601
- Cer 18:1/22:0 content in HEK293 cells (P053 100 nM): 66.0373 and 65.445 and 75.6523 and 61.1907
- Cer 18:1/24:0 content in HEK293 cells (P053 100 nM): 95.8984 and 114.847 and 144.796 and 106.353
- Cer 18:1/24:1 content in HEK293 cells (P053 100 nM): 43.7952 and 41.4019 and 48.5214 and 41.0347
- HexCer 18:1/16:0 content in HEK293 cells (P053 100 nM): 28.7244 and 29.2314 and 27.3495 and 32.1782
- HexCer 18:1/18:0 content in HEK293 cells (P053 100 nM): 1.552 and 2.033 and 2.382 and 2.572
- HexCer 18:1/20:0 content in HEK293 cells (P053 100 nM): 0.3018 and 0.2953 and 0.2763 and 0.1537
- HexCer 18:1/22:0 content in HEK293 cells (P053 100 nM): 35.0199 and 40.376 and 33.9893 and 41.9484
- HexCer 18:1/24:0 content in HEK293 cells (P053 100 nM): 193.278 and 206.781 and 205.001 and 225.138
- HexCer 18:1/24:1 content in HEK293 cells (P053 100 nM): 66.6213 and 67.2246 and 64.4273 and 72.2662
- SM 32:1 content in HEK293 cells (P053 100 nM): 33.5311 and 33.1495 and 31.0137 and 33.9978
- SM 34:1 content in HEK293 cells (P053 100 nM): 239.205 and 244.554 and 241.828 and 261.421
- SM 34:2 content in HEK293 cells (P053 100 nM): 40.9604 and 43.1506 and 39.5005 and 44.6858
- SM 36:1 content in HEK293 cells (P053 100 nM): 15.6181 and 17.1499 and 17.2078 and 18.9256
- SM 36:2 content in HEK293 cells (P053 100 nM): 6.971 and 7.206 and 7.1332 and 7.405
- SM 38:1 content in HEK293 cells (P053 100 nM): 4.352 and 7.605 and 11.0645 and 10.3031
- SM 40:1 content in HEK293 cells (P053 100 nM): 39.6185 and 38.4983 and 41.6326 and 45.0957
- SM 40:2 content in HEK293 cells (P053 100 nM): 10.6428 and 11.1113 and 10.5382 and 10.6417
- SM 42:1 content in HEK293 cells (P053 100 nM): 70.6629 and 69.6062 and 82.0245 and 85.9318
- SM 42:2 content in HEK293 cells (P053 100 nM): 112.606 and 107.685 and 114.026 and 114.211
- Cer 18:1/16:0 content in HEK293 cells (P053 300 nM): 17.822 and 19.0766 and 17.3933
- Cer 18:1/18:0 content in HEK293 cells (P053 300 nM): 1.8912 and 1.699 and 1.376
- Cer 18:1/20:0 content in HEK293 cells (P053 300 nM): 0.7162 and 0.4601 and 0.6576
- Cer 18:1/22:0 content in HEK293 cells (P053 300 nM): 64.624 and 69.7847 and 70.6121
- Cer 18:1/24:0 content in HEK293 cells (P053 300 nM): 94.7176 and 106.124 and 124.497
- Cer 18:1/24:1 content in HEK293 cells (P053 300 nM): 42.6517 and 39.4375 and 41.6471
- HexCer 18:1/16:0 content in HEK293 cells (P053 300 nM): 26.9367 and 27.3197 and 28.9409
- HexCer 18:1/18:0 content in HEK293 cells (P053 300 nM): 1.661 and 1.355 and 1.491
- HexCer 18:1/20:0 content in HEK293 cells (P053 300 nM): 0.2792 and 0.518 and 0.2446
- HexCer 18:1/22:0 content in HEK293 cells (P053 300 nM): 43.5691 and 40.2015 and 45.0568
- HexCer 18:1/24:0 content in HEK293 cells (P053 300 nM): 220.79 and 197.985 and 254.871
- HexCer 18:1/24:1 content in HEK293 cells (P053 300 nM): 63.1626 and 68.7371 and 74.9033
- SM 32:1 content in HEK293 cells (P053 300 nM): 31.4532 and 33.3582 and 37.098
- SM 34:1 content in HEK293 cells (P053 300 nM): 241.436 and 241.197 and 248.392
- SM 34:2 content in HEK293 cells (P053 300 nM): 42.0268 and 43.5268 and 45.2968
- SM 36:1 content in HEK293 cells (P053 300 nM): 14.7086 and 14.6722 and 17.3205
- SM 36:2 content in HEK293 cells (P053 300 nM): 6.184 and 6.8179 and 6.541
- SM 38:1 content in HEK293 cells (P053 300 nM): 9.78 and 11.6533 and 8.0822
- SM 40:1 content in HEK293 cells (P053 300 nM): 43.4372 and 43.0067 and 50.439
- SM 40:2 content in HEK293 cells (P053 300 nM): 12.0217 and 11.0813 and 11.4772
- SM 42:1 content in HEK293 cells (P053 300 nM): 70.0557 and 70.3641 and 94.669
- SM 42:2 content in HEK293 cells (P053 300 nM): 117.582 and 110.303 and 130.267
